Source: US4829086A, “Soft β-adrenergic blocking agents” (priority 1985, dated 1989)
Entries after “also recorded” stand apart in the source; their conditions may differ. Structures can show the parent of a compound that is named as a salt.

How the values were obtained:
[1] = test system: blood pressure response to isoproterenol; experiment: Blood pressure response to isoproterenol in rats; format: in vivo, male Spraque-Dawley rats; settings: 6 mg/kg i.p.; 10 minutes after isoproterenol
Text: (§1) Initial Drug Screening Protocol. Thirty-two male Spraque-Dawley rats (Blue Spruce Farms) initially weighing 300-450 gm were divided into seven different groups, each for a different drug to be tested: 12(n=4), 14(n=4), 17(n=5), 13(n=4) and 18(n=3), corresponding to the designated compounds 12, 14, 17, 13 and 18 (number of animals), respectively. The other two groups were controls (n=8, isoproterenol alone pretreated with carrier) and those treated with a known β-blocker, dl-propranolol (n=3). Ech animal was anesthetized with sodium pentobarbital (45 mg/kg) and the carotid artery was cannulated with PE-50 tubing. The cannula was subcutaneously threaded around the neck and exteriorized dorsally between the shoulder blades. Th cannula was filled with a heparin solution (300 μg/mL) and sealed with a solid 22 gauge stylet. The animals were housed in individual stainless steel cages, and two days were allowed for recovery from the surgery. Food and water were provided ad libitum. On the day of the experiment, the blood pressure and heart rate of each rat were monitored with a pressure transducer (Narco-Bio model P-1000) and the data recorded on a four-channel physiograph (Narco-Bio systems Marck IV). One hour was allowed as an equilibration period before any drugs were administered. All beta blockers were administered intraperitoneally at a dose of 6 mg/kg. Compounds 12 and 14 and dl-proranolol were dissolved in normal saline while compounds 13, 17 and 18 were dissolved in an ethanol: water solution (3:1). Depending on the trial, controls were administered the appropriate carrier. One hour after administration of the blocker, isoproterenol (Isuprel®, Wintrop Laboratories) was administered subcutaneously at a dose of 25 μg/kg. Blood pressures and heart rate also were recorded 3, 5, 10, 15, 20, 30, 45 and 60 minutes after isoproterenol administration. Both control and experimental animals were unrestrained and free moving in their home cage throughout the experiment. […] However, significant differences in the mean heart rate response amoung the 7 groups were observed: *p<0.005;**p<0.025. Comparisons between groups were made by the Newman-Keuls procedure with significance set at the 95% confidence interval. […] All data are shown as mean±standard error of the mean.
Symbols are the same as those described for FIG. 1. […] Data are shown as mean±standard error of the mean.

[2] = test system: heart rate response to isoproterenol (β-adrenergic); experiment: Heart rate response to isoproterenol in rats (initial drug screening); format: in vivo, male Spraque-Dawley rats; settings: 6 mg/kg i.p.
Text: as §1

[3] = test system: heart rate response to isoproterenol (β-adrenergic); experiment: Duration of action study, heart rate in rats; format: in vivo, male Sprague Dawley rats; settings: 6 mg/kg i.p.; for resting heart rate prior to isoproterenol: mean ± SEM
Procedure: Duration of Action Studies. An additional 38 male Sprague Dawley rats (Blue Spruce Farms) initially weighing 268 to 290 gm were anesthetized with sodium pentobarbital (45 mg/kg i.p.), and the carotid artery was cannulated as previously described. On the day of experimentation, after a one-hour equilibration period, initial baseline conditions of basal heart rate and mean blood pressures were recorded. The beta blocker (17) was administered intraperitoneally at a dose of 6 mg/kg. The drug was dissolved in an ethanol: water solution (3:1). This carrier was administered in the control rats. Isoproterenol (Isurprel®, Wintrop Laboratories) was then administered (25 μg/kg s.c.), either 15(n=13), 60(n=12) or 90(n=12) minutes after the beta blocker was administered. Blood pressures and heart rates were recorded at 3, 5, 10, 15, 20, 30, 45 and 60 minutes after isoproterenol administration in all three trials. Both control and experimental animals were unrestrained and free moving in their home cages throught the experiment. Heart rates and mean blood pressure were calculated from the data and a one-way ANOVA was determined at each time interval. The results are shown in FIG. 2 for control vehicle and compound 17 at 15(), 60() and 90() minutes prior to isoproterenol administration at time zero. Resting heart rates were similar in all 4 groups prior to administration of isoproterenol; 342±12; 375±14; 372±19 and 385±17 beats/minute, respectively. […] Data are shown as mean±standard error of the mean.

CC(C)NCC(O)COc1ccc(CC(=O)OC2CC(C)(C)CC(C)(C)C2)cc1 (stereo not shown) [Compound 17, 3,3,5,5-Tetramethylcyclohexyl 4-(2-hydroxy-3-isopropylamino)propoxyphenylacetate oxalate 3/4 hydrate]
mean change in blood pressure at 10 minutes vs compound 18 group [1]: significantly different from the group treated with compound 18 | mean heart rate response to isoproterenol, comparison between groups ([2]; 1 hour before isoproterenol 25 μg/kg s.c., Newman-Keuls, first 20 minutes (17) or first 30 minutes (propranolol)): significantly different from both control- and compound 18-treated groups | control of heart rate 60 minutes after administration ([2]; FIG. 1): effectively control the heart rate | mean heart rate response to isoproterenol vs groups treated with compound 12 and 18 ([2]; 10 through 45 minutes following isoproterenol): significantly different than the groups treated with compound 12 and 18 | resting heart rate prior to administration of isoproterenol ([2]; mean ± SEM): 372±19 beat/minute | heart rate response to isoproterenol ([3]; 15 or 60 minutes prior to isoproterenol 25 μg/kg s.c., FIG. 2, hydrate): attentuated heart rate response; also recorded: significant activity on heart rate | resting heart rate prior to isoproterenol ([3]; 15 minutes prior to isoproterenol): 375±14 beats/minute | resting heart rate prior to isoproterenol ([3]; 60 minutes prior to isoproterenol): 372±19 beats/minute | heart rate activity at 90 minutes ([3]; 90 minutes prior to isoproterenol, FIG. 2): disappears at 90 minutes | resting heart rate prior to isoproterenol ([3]; 90 minutes prior to isoproterenol): 385±17 beats/minute
